Patent US9877980B2, “Method and composition for treatment or prevention of type 2 diabetes and hyperlipidemia” (Chun-Ching Shih, priority 2016, dated 2018)
Marks after values point to notes of the source that are not given here.

Legend:
Assay type in all cases: in vivo
[1] = tested on: C57BL/6J mice on high-fat diet (HFD); test: Blood parameters (glucose, insulin, TG, FFA, TC, leptin, adiponectin) in HFD mice; conditions: for Blood parameters Adiponectin / Blood parameters FFA / Blood parameters Leptin / Blood parameters TC / blood level of glucose / blood level of insulin: 4 weeks
Description: (§1) The following experiment was performed and approved by the guidelines of the Institutional Animal Care and Use Committee of Central Taiwan University of Science and Technology. The 4-week old male C57BL/6J mice (total amount n=63) were purchased from the National Laboratory Animal Breeding and Research Center (Taipei, Taiwan). After acclimatization for one week, all of the mice were divided randomly into the control (CON) group and the high-fat diet (HFD) group. […] After HFD exposure for 8 weeks, the HFD group was further randomly subdivided into 6 groups (n=9 per group) to receive different treatments by oral gavage once daily for four weeks and on HFD. […] The HF+B1, HF+B2, and […] are collectively termed BB-treated HFD groups in the following examples. The CON mice were administered vehicle. After dosing for 4 weeks, the mice were given no food at night and sacrificed after 12 h of fasting on the next day. All of the individual tissues were collected and weighed, and portions were instantly frozen using liquid nitrogen and kept at −80° C. for subsequent target gene analysis. Blood samples (0.8 mL) were collected for analysis of blood parameters.
A portion of the blood samples obtained from the retro-orbital sinus of fasted mice were immediately used to measure blood glucose levels using Sidekick glucose analyzer (YSI 1500, YSI Incorporated, Yellow Springs, USA) according to the glucose oxidase method. Heparin (30 units/mL, Sigma) was added into other portions of the blood samples. […] Concentrations of plasma triglycerides (TG), total cholesterol (TC), and free fatty acids (FFA) were determined using commercial assay kits according to the manufacturer's instructions (Triglycerides-E test, Cholesterol-E test, and FFA-C test, Wako Pure Chemical, Osaka, Japan). Plasma insulin, leptin, and adiponectin levels were assessed using commercial assay kits according to the manufacturer's instructions (mouse insulin ELISA kit, Mercodia, Uppsala, Sweden; mouse leptin ELISA kit, Morinaga, Yokohama, Japan; Mouse Adiponectin ELISA kit, Crystal Chem International, Downers Grove, Ill., USA).

hepatocytes of HFD mice = test: Histology of liver tissue (hepatocellular ballooning); conditions: 4 weeks, grade 0 absence, 1 a few cells
Description: The following experiment was performed and approved by the guidelines of the Institutional Animal Care and Use Committee of Central Taiwan University of Science and Technology. The 4-week old male C57BL/6J mice (total amount n=63) were purchased from the National Laboratory Animal Breeding and Research Center (Taipei, Taiwan). After acclimatization for one week, all of the mice were divided randomly into the control (CON) group and the high-fat diet (HFD) group. For the following 12 weeks, the CON group (n=9) was kept on a low-fat diet (Diet 12450B, Research Diets, Inc., New Brunswick, N.J., USA), while the HFD group (n=54) was exposed to a high-fat diet (Diet 12451, Research Diets, New Brunswick, N.J., USA). The low-fat diet was composed of protein 20%, carbohydrate 70% and fat 10%, whereas the high-fat diet was composed of protein 20%, carbohydrate 35%, and fat 45% (of total energy, % kcal). After HFD exposure for 8 weeks, the HFD group was further randomly subdivided into 6 groups (n=9 per group) to receive different treatments by oral gavage once daily for four weeks and on HFD. […] The HF+B1, HF+B2, and […] are collectively termed BB-treated HFD groups in the following examples. The CON mice were administered vehicle. After dosing for 4 weeks, the mice were given no food at night and sacrificed after 12 h of fasting on the next day. All of the individual tissues were collected and weighed, and portions were instantly frozen using liquid nitrogen and kept at −80° C. for subsequent target gene analysis. Blood samples (0.8 mL) were collected for analysis of blood parameters.
Small pieces of epididymal white adipose tissue and liver tissue were fixed with formalin (200 g/kg) neutral buffered solution and embedded in paraffin. Sections of 8 μm […] were cut and stained with hematoxylin and eosin. For microscopic examination, a microscope (Leica, DM2500) was used, and the images were taken using a Leica Digital Camera (DFC-425-C).
Based on previous report, the designation of histological hepatocellular ballooning findings include grade 0 for absence of degeneration, grade 1 for degeneration in a few cells, and […] for degeneration in many cells.

G6Pase = test: Semi-quantitative RT-PCR of liver mRNA: G6Pase; conditions: HFD mice, 4 weeks, vs HF group
Description: as §1
(§2) Total RNA from liver tissue of mice was isolated with a Trizol Reagent (Molecular Research Center, Inc., Cincinnati, Ohio, USA) according to the manufacturer's instructions. The integrity of the extracted total RNA was examined by 2% agarose gel electrophoresis, and the RNA concentration was determined by the ultraviolet (UV) light absorbency at 260 nm and 280 nm (Spectrophotometer U-2800A, Hitachi). The quality of the RNA was confirmed by ethidium bromide staining of 18S and 28S ribosomal RNA after electrophoresis on 2% agarose gel containing 6% formaldehyde.
(§3) Levels of mRNA of genes of interest were quantified by semi-quantitative reverse transcription polymerase chain reaction (RT-PCR). […] PCR products were analyzed by 2% agarose gels and stained with ethidium bromide.

11β-HSD1 = test: Semi-quantitative RT-PCR of liver mRNA: 11β-HSD1; conditions: HFD mice, 4 weeks, vs HF group
Description: as §1, §2, §3

DGAT2 = test: Semi-quantitative RT-PCR of liver mRNA: DGAT2; conditions: HFD mice, 4 weeks, vs HF group
Description: as §1, §2, §3

[2] = 10 mg/kg/day oral gavage, vs HF group
[3] = 20 mg/kg/day oral gavage, vs HF group
[4] = 40 mg/kg/day oral gavage, vs HF group

OCC1O[C@@H](O[C@@H]2Cc3c(O)cc(O)cc3O[C@@H]2c2ccc(O)c(O)c2)C(O)C(O)[C@@H]1O (single isomer, unassigned; (-)) [compound of formula I, (−)-epicatechin-3-O-β-D-allopyranoside]
Blood parameters Adiponectin ([1]; 10 mg/kg/day oral gavage): 2.895 ± 0.010^f μg/mL | Blood parameters FFA ([1]; 10 mg/kg/day oral gavage): 1.11 ± 0.13^d mEq/L | Blood parameters Leptin ([1]; 10 mg/kg/day oral gavage): 1.662 ± 0.009^f ng/mL | Blood parameters TC ([1]; 10 mg/kg/day oral gavage): 153.5 ± 7.7 mg/dL | blood level of glucose [1, 2]: markedly lowered | blood level of insulin [1, 2]: markedly lowered | Blood parameters Adiponectin ([1]; 20 mg/kg/day oral gavage): 3.277 ± 0.052^f μg/mL | Blood parameters FFA ([1]; 20 mg/kg/day oral gavage): 0.95 ± 0.04^f mEq/L | Blood parameters Leptin ([1]; 20 mg/kg/day oral gavage): 1.372 ± 0.029^f ng/mL | Blood parameters TC ([1]; 20 mg/kg/day oral gavage): 144.1 ± 4.0 mg/dL | blood level of glucose [1, 3]: markedly lowered | blood level of insulin [1, 3]: markedly lowered | Blood parameters Adiponectin ([1]; 40 mg/kg/day oral gavage): 3.628 ± 0.034^f μg/mL | Blood parameters FFA ([1]; 40 mg/kg/day oral gavage): 0.86 ± 0.09^f mEq/L | Blood parameters Leptin ([1]; 40 mg/kg/day oral gavage): 1.321 ± 0.008^f ng/mL | Blood parameters TC ([1]; 40 mg/kg/day oral gavage): 142.9 ± 6.6 mg/dL | blood level of glucose [1, 4]: markedly lowered | blood level of insulin [1, 4]: markedly lowered | circulating TG levels ([1]; oral gavage 4 weeks (formula I 10, 20, 40; Rosi 10; Feno 250 mg/kg/day), vs HF group): decreased | hepatocellular ballooning mean score (hepatocytes of HFD mice; 10 mg/kg/day oral gavage): 0.7±0.1 | hepatocellular ballooning mean score (hepatocytes of HFD mice; 20 mg/kg/day oral gavage): 0.5±0.2 | hepatocellular ballooning mean score (hepatocytes of HFD mice; 40 mg/kg/day oral gavage): 0.4±0.1 | liver mRNA level of G6Pase (G6Pase; 10 mg/kg/day oral gavage): significantly reduced | liver mRNA level of G6Pase (G6Pase; 20 mg/kg/day oral gavage): significantly reduced | liver mRNA level of G6Pase (G6Pase; 40 mg/kg/day oral gavage): significantly reduced | liver mRNA level of 11β-HSD1 (11β-HSD1; 10 mg/kg/day oral gavage): significantly reduced | liver mRNA level of 11β-HSD1 (11β-HSD1; 20 mg/kg/day oral gavage): significantly reduced | liver mRNA level of 11β-HSD1 (11β-HSD1; 40 mg/kg/day oral gavage): significantly reduced | liver mRNA level of DGAT2 (DGAT2; 10 mg/kg/day oral gavage): significantly reduced | liver mRNA level of DGAT2 (DGAT2; 20 mg/kg/day oral gavage): significantly reduced | liver mRNA level of DGAT2 (DGAT2; 40 mg/kg/day oral gavage): significantly reduced
